Results: PMC8286815 (Biochemical Journal, 2021)
Where two headings read alike, the source gives them in different places.

Key:
[1] = system: SARS-CoV-2 in Vero E6 cells; assay: Viral inhibition assay (N protein immunofluorescence); assay type: cell-based; details: for EC50: read-out: EC50 antiviral activity against SARS-CoV-2
[2] = biological target: T1, SARS-CoV-2 RdRp (nsp12/nsp7/nsp8) (Severe acute respiratory syndrome coronavirus 2, UniProt P0DTD1); assay: Gel-based polymerisation (primer-extension) assay; assay type: biochemical; details: compound at 50 µM, 30-min reaction, 300 nM RdRp, native PAGE
T1 construct: added initiator Met before nsp12 (N); made in house; host or cells: Sf9 insect cells (Spodoptera frugiperda), baculovirus

[3] = biological target: T1, SARS-CoV-2 RdRp (nsp12/nsp7/nsp8); assay: FRET-based strand displacement assay (RdRp activity); assay type: biochemical; details: 100 nM RNA substrate, 300 µM of each NTP
[4] = system: SARS-CoV-2 in Vero E6 cells; design: method as in Zeng et al. [46]; details: same protocol, ref Zeng et al. [46], read-out: EC50 against SARS-CoV-2; cited from earlier work
influenza infection = details: treated mice; cited from earlier work
[5] = system: influenza A viruses in A549 cells; design: method as in PMID 26711748; details: different strains, read-out: EC50 suppression of replication of influenza A viruses; cited from earlier work
Vero E6 cells = assay: Cell viability in the viral inhibition assay (DRAQ7 staining); details: DRAQ7 area, concentrations tested up to 300 µM
[6] = Severe acute respiratory syndrome coronavirus 2, Vero C1008, Vero E6 cells, MOI 0.5 PFU/cell, 22 h, area of viral plaques by N protein staining
[7] = IC50 (µM) + 0.01% Triton X-100, 150 nM RdRp, presence of 0.01% Triton X-100
[8] = IC50 (µM) No detergent, 150 nM RdRp, absence of Triton X-100
[9] = Severe acute respiratory syndrome coronavirus 2, Vero C1008, 22 h

Row | SMILES | EC50 [1, 6] | Inhibition of RNA duplex formation [2] | IC50 [3, 7] | IC50 [3, 8] | EC50 [1, 9] | other results
1 | CC(C)C(C(=O)O)N1C(=O)/C(=C/c2ccc(Br)cc2)SC1=S (stereo not shown) [BH3I-1] | 77 µM | inhibited RNA duplex formation almost completely | 13 µM | 14 µM | – | –
2 | O=C1C(=O)N(Cc2ccc(Cl)c(Cl)c2)c2ccccc21 [MDK-83190] | – | – | – | – | 81 µM | –
3 | OC[C@@H](O)[C@H]1NC[C@@H](O)[C@H]1O [1,4-Dideoxy-1,4-imino-D-mannitol] | – | – | – | – | – | IC50 (µM) No detergent ([3]; 150 nM RdRp, absence of Triton X-100): no cl ear i nhi bi ti; IC50 (µM) + 0.01% Triton X-100 ([3]; 150 nM RdRp, presence of 0.01% Triton X-100): no cl ear i nhi bi ti
4 | CCC(CC)COC(=O)[C@H](C)N[P@](=O)(OC[C@H]1O[C@@](C#N)(c2ccc3c(N)ncnn23)[C@H](O)[C@@H]1O)Oc1ccccc1 [Remdesivir] | 1.8 µM | – | – | – | – | inhibition at 0.5 µM ([1]; Severe acute respiratory syndrome coronavirus 2, Vero C1008, 0.5 µM, Vero E6 cells, read-out: Inhibition of viral infection as a single agent): < 10%
5 | Cc1ccc(C(=O)Nc2ccc(S(=O)(=O)O)c3cc(S(=O)(=O)O)cc(S(=O)(=O)O)c23)cc1NC(=O)c1cccc(NC(=O)Nc2cccc(C(=O)Nc3cc(C(=O)Nc4ccc(S(=O)(=O)O)c5cc(S(=O)(=O)O)cc(S(=O)(=O)O)c45)ccc3C)c2)c1 [Suramin] | – | inhibited RNA duplex formation almost completely | 0.78 µM | 0.43 µM | – | EC50 [4]: 9.9 µM
6 | Nc1c(C(=O)O)c2nc3c(C(=O)O)cccc3oc-2cc1=O [Cinnabarinic Acid] | – | – | > 100 µM | > 100 µM | – | –
7 | CC1=NN(c2ccc(C(=O)O)cc2)C(=O)C1=Cc1ccc(-c2cc(C)c(C)cc2[N+](=O)[O-])o1 [C646] | 19 µM | inhibited RNA duplex formation almost completely | 7.8 µM | 6.1 µM | – | Toxicity in murine models of influenza infection (influenza infection): no associated toxicity; Viral replication in murine models of influenza infection (influenza infection): significant reduction in viral replication; EC50 [5]: 16 µM
8 | NC(=O)c1cc[n+](CC2=C(C(=O)O)N3C(=O)[C@@H](NC(=O)[C@@H](c4ccccc4)S(=O)(=O)[O-])[C@H]3SC2)cc1 [Cefsulodin] | – | partial inhibition | 49 µM | 50 µM | 108 µM | –
9 | O=C(O)c1ccc(-c2c[nH]c3ncc(-c4ccccc4)cc23)cc1C1CCCC1 [GSK-650394] | – | partial inhibition | 29 µM | 31 µM | 7.6 µM | Concentration at which cytotoxicity was seen (Vero E6 cells): 300 µM
